Laboratory results from ChEMBL document CHEMBL1201862, “PubChem BioAssay data set” (2004).
Active and inactive are the calls of the source.

Tests used:
[1] = Luminescence Cell-Based Dose Retest to Confirm Inhibitors of Cancer Stem Cells. [Related pubchem assays (depositor defined):AID2717, AID2721]; assay type: functional; conditions: Homo sapiens
[2] = target: Heat shock protein HSP 90-alpha (Homo sapiens, UniProt P07900); assay type: functional, organism-based
[3] = target: Induced myeloid leukemia cell differentiation protein Mcl-1 (Homo sapiens, UniProt Q07820); assay type: functional
Chain of Induced myeloid leukemia cell differentiation protein Mcl-1 (Q07820 whole entry): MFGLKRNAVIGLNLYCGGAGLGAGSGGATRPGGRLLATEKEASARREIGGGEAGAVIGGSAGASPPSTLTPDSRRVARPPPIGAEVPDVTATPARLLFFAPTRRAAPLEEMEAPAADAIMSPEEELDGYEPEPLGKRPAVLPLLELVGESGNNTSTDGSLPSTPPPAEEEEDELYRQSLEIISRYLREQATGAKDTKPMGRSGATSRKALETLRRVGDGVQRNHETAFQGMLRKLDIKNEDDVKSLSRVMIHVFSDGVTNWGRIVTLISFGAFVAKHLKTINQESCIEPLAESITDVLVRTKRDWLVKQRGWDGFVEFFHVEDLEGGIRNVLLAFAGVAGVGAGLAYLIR

[4] = target: T1, High affinity choline transporter 1 (Homo sapiens, UniProt Q9GZV3); assay: CHT inhibitors, dose response, cell-based, 5-point CRC, membrane potential dye (AID 504840); assay type: functional
T1 sequence (Q9GZV3 whole entry): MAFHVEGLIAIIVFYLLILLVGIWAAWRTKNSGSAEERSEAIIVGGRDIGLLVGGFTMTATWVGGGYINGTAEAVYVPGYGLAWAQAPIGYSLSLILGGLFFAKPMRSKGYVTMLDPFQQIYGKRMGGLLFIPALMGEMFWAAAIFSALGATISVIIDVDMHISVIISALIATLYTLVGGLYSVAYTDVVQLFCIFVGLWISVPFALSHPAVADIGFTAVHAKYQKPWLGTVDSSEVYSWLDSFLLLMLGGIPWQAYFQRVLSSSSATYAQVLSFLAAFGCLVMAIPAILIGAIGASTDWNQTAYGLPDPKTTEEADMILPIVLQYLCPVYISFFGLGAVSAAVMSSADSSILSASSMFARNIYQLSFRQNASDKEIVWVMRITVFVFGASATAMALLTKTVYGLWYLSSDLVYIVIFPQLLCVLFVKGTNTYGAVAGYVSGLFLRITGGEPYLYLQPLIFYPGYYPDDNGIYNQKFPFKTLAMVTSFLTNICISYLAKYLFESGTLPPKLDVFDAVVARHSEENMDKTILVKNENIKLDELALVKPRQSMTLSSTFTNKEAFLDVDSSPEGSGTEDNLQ

[5] = target: T2, Short transient receptor potential channel 4 (Mus musculus, UniProt Q9QUQ5); assay: mouse TRPC4 channel inhibitors, dose response, cell-based, HEK293 TRPC4/mu-opioid, Fluo-4 calcium (AID 434942); assay type: functional;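 also: potency of inhibitors blocking the TRPC4 calcium response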
T2 sequence (Q9QUQ5 whole entry): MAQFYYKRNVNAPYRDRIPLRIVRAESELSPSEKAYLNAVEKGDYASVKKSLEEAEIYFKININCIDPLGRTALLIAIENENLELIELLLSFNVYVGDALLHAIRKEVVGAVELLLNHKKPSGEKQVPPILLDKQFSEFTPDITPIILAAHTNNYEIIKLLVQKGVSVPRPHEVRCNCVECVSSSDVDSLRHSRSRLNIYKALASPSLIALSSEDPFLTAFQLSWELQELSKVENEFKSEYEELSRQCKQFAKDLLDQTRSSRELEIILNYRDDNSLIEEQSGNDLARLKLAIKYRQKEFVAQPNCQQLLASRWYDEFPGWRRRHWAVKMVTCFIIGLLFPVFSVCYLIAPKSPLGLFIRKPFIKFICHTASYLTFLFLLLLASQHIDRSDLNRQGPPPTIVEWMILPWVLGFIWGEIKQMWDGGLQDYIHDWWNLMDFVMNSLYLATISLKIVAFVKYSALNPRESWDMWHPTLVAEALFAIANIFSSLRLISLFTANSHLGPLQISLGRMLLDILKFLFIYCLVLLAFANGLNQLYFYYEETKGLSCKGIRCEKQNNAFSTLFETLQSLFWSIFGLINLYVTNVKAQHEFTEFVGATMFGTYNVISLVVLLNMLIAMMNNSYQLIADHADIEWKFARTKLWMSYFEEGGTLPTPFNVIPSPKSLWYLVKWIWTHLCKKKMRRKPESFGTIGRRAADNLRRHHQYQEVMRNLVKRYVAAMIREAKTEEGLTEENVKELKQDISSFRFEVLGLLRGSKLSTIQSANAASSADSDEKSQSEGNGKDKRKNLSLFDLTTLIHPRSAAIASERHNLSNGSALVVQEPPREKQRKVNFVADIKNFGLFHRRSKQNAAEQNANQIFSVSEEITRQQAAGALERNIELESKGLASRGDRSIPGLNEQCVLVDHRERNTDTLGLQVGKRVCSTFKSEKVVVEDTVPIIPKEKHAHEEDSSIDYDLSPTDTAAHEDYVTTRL

[6] = target: T3, Rac GTPase-activating protein 1 (Homo sapiens, UniProt Q9H0H5); assay: MgcRacGAP GTPase-activating activity inhibitors, confirmation, biochemical, ADP Hunter fluorescence, primary and confirmatory (AID 624330); assay type: functional
T3 sequence (Q9H0H5 whole entry): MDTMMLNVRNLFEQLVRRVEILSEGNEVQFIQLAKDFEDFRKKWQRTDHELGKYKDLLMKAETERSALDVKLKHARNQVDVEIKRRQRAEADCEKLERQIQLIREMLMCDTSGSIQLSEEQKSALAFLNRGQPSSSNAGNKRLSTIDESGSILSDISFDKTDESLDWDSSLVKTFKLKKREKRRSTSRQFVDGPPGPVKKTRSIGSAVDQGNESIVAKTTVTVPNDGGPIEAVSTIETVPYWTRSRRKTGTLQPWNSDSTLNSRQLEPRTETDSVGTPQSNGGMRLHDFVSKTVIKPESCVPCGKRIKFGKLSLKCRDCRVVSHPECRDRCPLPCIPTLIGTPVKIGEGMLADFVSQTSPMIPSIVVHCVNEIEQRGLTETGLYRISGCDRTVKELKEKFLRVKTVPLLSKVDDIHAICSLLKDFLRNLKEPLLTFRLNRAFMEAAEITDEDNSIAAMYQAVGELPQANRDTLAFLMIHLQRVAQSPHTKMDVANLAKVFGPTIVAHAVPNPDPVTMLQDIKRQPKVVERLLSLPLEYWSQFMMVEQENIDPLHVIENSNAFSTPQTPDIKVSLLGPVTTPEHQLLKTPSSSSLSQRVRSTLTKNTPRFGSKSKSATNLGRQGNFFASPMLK

[7] = target: T4, Mannose-6-phosphate isomerase (Homo sapiens, UniProt P34949); assay: human PMI inhibitors, high substrate, primary screen, biochemical, fluorescence intensity, high mannose 6-phosphate (AID 1220)
T4 sequence (P34949 whole entry): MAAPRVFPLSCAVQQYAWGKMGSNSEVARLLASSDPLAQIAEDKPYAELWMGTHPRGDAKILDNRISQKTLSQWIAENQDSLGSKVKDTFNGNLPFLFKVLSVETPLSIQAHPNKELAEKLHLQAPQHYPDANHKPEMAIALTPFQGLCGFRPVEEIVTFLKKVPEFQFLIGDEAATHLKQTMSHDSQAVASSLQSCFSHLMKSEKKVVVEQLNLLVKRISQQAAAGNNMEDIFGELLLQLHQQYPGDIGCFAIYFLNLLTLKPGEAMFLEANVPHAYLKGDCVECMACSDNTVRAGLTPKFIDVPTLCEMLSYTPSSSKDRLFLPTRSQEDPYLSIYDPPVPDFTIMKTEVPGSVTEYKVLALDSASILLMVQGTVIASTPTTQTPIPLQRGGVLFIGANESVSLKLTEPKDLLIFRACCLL

[8] = target: T5, Carboxy-terminal domain RNA polymerase II polypeptide A small phosphatase 1 (Homo sapiens, UniProt Q9GZU7); assay: inhibitors of CTDSP1, concentration-response testing, biochemical assay, absorbance-based, actives from ultra-high-throughput screening (AID 540297); assay type: functional
T5 sequence (Q9GZU7 whole entry): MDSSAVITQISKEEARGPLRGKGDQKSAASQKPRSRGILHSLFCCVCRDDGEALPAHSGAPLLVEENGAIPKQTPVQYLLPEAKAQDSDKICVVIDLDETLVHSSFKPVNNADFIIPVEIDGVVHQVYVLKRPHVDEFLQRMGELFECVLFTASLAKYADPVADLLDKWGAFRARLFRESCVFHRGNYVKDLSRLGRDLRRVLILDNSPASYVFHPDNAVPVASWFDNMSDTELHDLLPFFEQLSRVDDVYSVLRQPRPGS

BJ [9] = assay: cytotoxicity toward BJ-TERT fibroblasts, dose response, cell-based, RAS-independent, luminescence (AID 1933); assay type: functional; conditions: Homo sapiens
BJ [10] = assay: cytotoxicity toward BJ-TERT-LT-ST fibroblasts, dose response, cell-based, RAS-independent, luminescence (AID 1935); assay type: functional; conditions: Homo sapiens;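 also: BJ fibroblasts immortalized with TERT plus LT and ST oncogenes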
[11] = cytotoxicity toward DRD oncogenic fibroblasts, dose response, cell-based, non-viral oncogenic, luminescence (AID 1934); assay type: functional; conditions: Homo sapiens
[12] = Shn3 3'UTR reporter inhibitors, dose response, cell-based, Clone20 osteoblasts, firefly luciferase, cherry-picked (AID 624132); assay type: functional;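 also: firefly luciferase luminescence from reporter carrying the Shn3 3'UTR in osteoblasts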
[13] = HepG2 cell cytotoxicity, dose response, cytotoxicity control for Shn3 inhibitor project, CellTiter-Glo, cherry-picked (AID 624134); assay type: functional, cell-based
BJ [14] = assay: cytotoxicity toward Ras-transformed BJeLR fibroblasts, dose response, cell-based, alamar blue fluorescence, cherrypicked samples (AID 2631); assay type: functional; conditions: Homo sapiens;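 also: confirmatory dose-response assay in RAS-dependent BJ fibroblasts engineered with TERT, LT and ST, with cytotoxicity read by fluorescence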
BJ [15] = assay: cells; assay type: functional, cell-based; conditions: Homo sapiens
[16] = cytotoxicity in HEK-293T cells, dose response, cytotoxicity control for TCR NF-kB inhibitor project, luminescence, T-cell screen hits (AID 489026); assay type: functional, cell-based;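 also: cells exposed to compound about 14 hours before the viability readout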
[17] = target: T6, DNA repair and recombination protein RAD54-like (Homo sapiens, UniProt Q92698); assay: inhibitors of human RAD54 branch migration, confirmation, biochemical, fluorescence, cherry-picked samples, dose series (AID 651657); assay type: functional
T6 sequence (Q92698 whole entry): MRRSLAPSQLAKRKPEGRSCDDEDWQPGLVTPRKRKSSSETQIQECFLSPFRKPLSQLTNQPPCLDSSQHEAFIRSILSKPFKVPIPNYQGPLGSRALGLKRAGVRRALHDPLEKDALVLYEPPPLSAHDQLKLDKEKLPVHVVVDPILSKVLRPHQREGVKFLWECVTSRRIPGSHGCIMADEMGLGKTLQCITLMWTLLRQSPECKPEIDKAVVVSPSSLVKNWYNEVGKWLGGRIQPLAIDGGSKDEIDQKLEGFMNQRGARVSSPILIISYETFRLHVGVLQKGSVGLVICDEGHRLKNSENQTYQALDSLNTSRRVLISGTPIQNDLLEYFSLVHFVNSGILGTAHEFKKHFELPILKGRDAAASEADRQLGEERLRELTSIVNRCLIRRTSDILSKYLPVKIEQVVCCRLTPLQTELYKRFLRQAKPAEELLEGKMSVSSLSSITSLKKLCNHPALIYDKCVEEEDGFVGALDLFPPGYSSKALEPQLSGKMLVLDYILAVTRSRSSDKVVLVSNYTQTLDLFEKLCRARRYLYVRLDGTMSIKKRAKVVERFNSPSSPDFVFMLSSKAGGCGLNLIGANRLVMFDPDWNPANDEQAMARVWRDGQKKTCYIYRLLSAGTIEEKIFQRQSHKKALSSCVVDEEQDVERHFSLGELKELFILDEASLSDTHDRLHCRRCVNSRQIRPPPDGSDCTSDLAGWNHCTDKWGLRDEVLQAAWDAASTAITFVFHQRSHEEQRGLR

O=C(NCCCSc1ccccc1)c1cc(Br)ccc1O
AC50 [1]: 3.38 µM (active)
AC50 [2]: 4.6 µM (active)

CC(=O)N1CCc2cc(S(=O)(=O)NC(Cc3ccccc3)C(=O)NC3CCCCCC3)ccc21 (centres undefined)
IC50 [3]: 4.58 µM (not active)

CCOC(=O)C1CCCN(c2ccc(NC(=O)c3snc4c(=O)[nH]c(C)nc34)cc2)C1 (centres undefined)
IC50 [3]: 5.25 µM (active)

CCOC(=O)c1c(NC(=O)CCN2C(=O)c3cccc([N+](=O)[O-])c3C2=O)sc(C(=O)OC(C)C)c1C
IC50 [4]: 12.6 µM (active)

CCOC(=O)C1=C(C)NC(=O)CC1c1cc2c(cc1[N+](=O)[O-])OCO2 (centres undefined)
EC50 [5]: 1.68 µM (active)
IC50 [6]: 100 µM (active)
IC50 [7]: > 50 µM (not active)

CCc1ccccc1NC(=O)c1cccc(Oc2ccc([N+](=O)[O-])cc2Cl)c1
AC50 [2]: 4.35 µM (active)

COc1ccc(NC(=O)CN(C)C(=O)/C=C/c2cn(Cc3ccccc3)nc2-c2cccnc2)cc1
IC50 [8]: 8.74 µM (active)

Cc1cccc(N2CCN(C(=S)Nc3ccc4nc(N5CCN(C)CC5)cc(C)c4c3)CC2)c1C
EC50 (BJ [9]): 1.22 µM (inconclusive)
EC50 (BJ [10]): 1.33 µM (inconclusive)
EC50 [11]: 2.46 µM (active)
AC50 [12]: 5.45 µM (active)
AC50 [13]: 6.83 µM (active)
EC50 (BJ [14]): 585 nM (active)
EC50 (BJ [15]): 5.6 µM (inconclusive)

Cc1ccc(NC(=O)/C=C/c2ccco2)nc1
IC50 [8]: 11.7 µM (active)

Cc1c(CN2CCCCC2)c(O)n(CCO)c(=O)c1C#N
IC50 [7]: > 50 µM (not active)

COc1ccc(N2C(=O)CC(Sc3nc[nH]n3)C2=O)c(OC)c1 (centres undefined)
IC50 [7]: > 50 µM (not active)

CCOC(=O)C1=C(C)N=c2s/c(=C\c3ccc(C(=O)O)cc3)c(=O)n2C1c1ccc(OC)cc1OC (centres undefined)
IC50 [8]: 7.72 µM (active)

O=C(c1ccc(COc2ccccc2[N+](=O)[O-])o1)N1CCCCCC1
IC50 [4]: 12.6 µM (active)

COc1ccc(N2CCN(C(=O)Cc3ccc(S(=O)(=O)N4CCOCC4)s3)CC2)cc1
IC50 [8]: 6.08 µM (active)

CC(=O)OC1C(=O)OCC23CCC4(C)OC4C2OC2CC(OC(=O)C=CC=CC(=O)OCCC1C)C3(C)C21CO1 (centres undefined)
AC50 [2]: 2.3 µM (active)

Cc1ccc(NC(S)=NNC(=O)c2cccc([N+](=O)[O-])c2)cc1Cl
IC50 [4]: 12.6 µM (active)

CC(=O)Nc1ccc(-c2csc(NC(=O)C3CC(=O)N(c4ccc5c(c4)OCCO5)C3)n2)cc1 (centres undefined)
IC50 [3]: 3.44 µM (active)

CN(Cc1ccccc1)C(=O)CN1CCN(C(c2ccccc2)c2ccccc2)CC1
IC50 [4]: 11.5 µM (active)

Cc1cc(C)cc(NS(=O)(=O)c2ccc(-c3cnc(C4CC4)o3)cc2)c1
EC50 (BJ [9]): 0.346 µM (active)
EC50 (BJ [10]): 0.521 µM (inconclusive)
EC50 [11]: 0.525 µM (active)
IC50 [16]: > 80 µM (inactive)
EC50 (BJ [14]): < 104 nM (active)
EC50 (BJ [15]): 26.2 µM (active)

CCCNc1nc2nc3ccccn3c(=O)c2cc1C(=O)NCCN1CCOCC1
AC50 [17]: 32.4 µM (active)
